In patent publication US20190328691A1, “ANTIBIOTIC THERAPY” (Boulos & Cooper Pharmaceuticals Pty Ltd, priority 2015, published 2019):
Read-outs that look alike come from different tables or passages of the source.

Tests used:
[1] = system: Staphylococcus aureus (ATCC 29213); test: Checkerboard combination / MIC assay with S. aureus ATCC 29213; format: cell-based; settings: S. aureus ATCC 29213; for MIC: Staphylococcus aureus, read-out: MIC of antibiotic alone
Procedure: (§1) Colonies were suspended in PBS. The absorbance of each suspension was measured with a spectrophotometer, and then the suspension was adjusted to 1×10^6 CFU/mL. The testing inoculum was prepared within 20 minutes before adding to wells of the test plate. Final cellular density in the checkerboard assays was 5×10^5 CFU/mL.
(§2) The combination effect of antibacterial substances administered together was evaluated by an in vitro checkerboard combination method with Staphylococcus aureus (ATCC 29213) and Staphylococcus aureus (BAA-1717). Ramizol and Chlopam were tested alone in 11 points by two-fold serial titration and in combination with different commercial antibiotics which were tested in a 7-point titration alone and in combination with Ramizol and Chlopam using the checkerboard technique as recommended by the Clinical & Laboratory Standards Institute (CLSI. Methods for Dilution In Antimicrobial Susceptibility Tests for Bacteria That Grow Aerobically; Approved Standard-Eighth Edition. CLSI document M07-A8 (ISBN 1-56238-689-1). Vol. 29 No. 2. Clinical and Laboratory Standards Institute, USA, 2009). The commercial antibiotics were also tested alone. Twenty-four checkerboard tests were performed.
(§3) The starting concentration of Ramizol, Chlopam, and the commercial antibiotics was four fold of the MIC. The testing range for each combination was described in the following summary tables.
(§4) Compound dilutions of Ramizol and Chlopam were performed in 100% DMSO and the final DMSO concentration in all test wells was 2%. Growth control wells also included 2% DMSO. CLSI protocol was followed for medium, inoculum preparation, and endpoint reading. The commercial antibiotics were dissolved and diluted in the CLSI specified diluent. The final inoculum count for each strain was 5×10^5 CFU/mL.
Cefepime, Daptomycin, Linezolid, Mupirocin, Oxacillin and Vancomycin were also tested alone. Each test substance was dissolved and diluted in 100% DMSO or specified solvent. Each test substance dilution (2 μL) was added to 96 μL broth CAMHB. CAMHB seeded with S. aureus ATCC 29213 at 1×10^6 CFU/mL (100 μL) was then added to the plate to generate a final cell count at 5×10^5 CFU/mL.
(§5) Assay plates were incubated and MIC endpoints were read as described in the MIC assay. FIC (Fraction Inhibitory Concentration) and FIC Index (FICI) values for each test condition and the average of FICI values of all pairwise combinations were calculated to determine if synergy or antagonism existed between the two substances. The FIC index was determined by calculating the sum of the ratios of MICs for both substances. Arithmetically, the FIC Index of a combination of Substance 1 and Substance 2 was defined as following: FICI=Σ[FIC(Substance 1)+FIC(Substance 2)]=[(MIC of Substance 1 in combination/MIC of Substance 1 alone)+(MIC of Substance 2 in combination/MIC of Substance 2 alone)]. Synergy is defined as the FICI (Σ)≤0.5; additivity as FICI (Σ)>0.5 to ≤1; indifference as FICI (Σ)>1 to ≤4; antagonism is defined as the FICI (Σ)>4 (Zinner and Blaser, J. Journal of Antimicrobial Chemotherapy (1986), 17, 1-5; Amin, et al BMC Complementary & Alternative Medicine (2015), 15, 59; Zuo, et al. Molecules (2011), 16, 9819-9826).

[2] = system: Staphylococcus aureus (BAA-1717); test: Checkerboard combination / MIC assay with S. aureus BAA-1717 (MRSA); format: cell-based; settings: for Effect of individual antibiotic combinations: S. aureus BAA-1717
Procedure: as §1, §2, §3, §4
Each test substance was dissolved and diluted in 100% DMSO or specified solvent. Each test substance dilution (2 μL) was added to 96 μL broth CAMHB. CAMHB seeded with S. aureus BAA-1717 at 1×10^6 CFU/mL (100 μL) was then added to the plate to generate a final cell count at 5×10^5 CFU/mL.
as §5

CCCCCCCCCC(=O)N[C@@H](Cc1c[nH]c2ccccc12)C(=O)N[C@H](CC(N)=O)C(=O)N[C@@H](CC(=O)O)C(=O)N[C@@H]1C(=O)NCC(=O)N[C@@H](CCCN)C(=O)N[C@@H](CC(=O)O)C(=O)N[C@H](C)C(=O)N[C@@H](CC(=O)O)C(=O)NCC(=O)N[C@H](CO)C(=O)N[C@@H]([C@H](C)CC(=O)O)C(=O)N[C@@H](CC(=O)c2ccccc2N)C(=O)O[C@@H]1C [Daptomycin]
FICI of combination with Chlopam ([1]; Chlopam 0.003906 μg/mL + labelled antibiotic at MIC of same cell): 1.0
MIC of antibiotic in combination with Chlopam ([1]; Chlopam 0.003906 μg/mL): 0.5 µg/mL
FICI of combination with Chlopam ([1]; Chlopam 0.0078125 μg/mL + labelled antibiotic at MIC of same cell): 1.0
MIC of antibiotic in combination with Chlopam ([1]; Chlopam 0.0078125 μg/mL): 0.5 µg/mL
FICI of combination with Chlopam ([1]; Chlopam 0.015625 μg/mL + labelled antibiotic at MIC of same cell): 1.0
MIC of antibiotic in combination with Chlopam ([1]; Chlopam 0.015625 μg/mL): 0.5 µg/mL
FICI of combination with Chlopam ([1]; Chlopam 0.25 μg/mL + labelled antibiotic at MIC of same cell): 1.0
MIC of antibiotic in combination with Chlopam ([1]; Chlopam 0.25 μg/mL): 0.25 µg/mL
FICI of combination with Chlopam ([1]; Chlopam 0.5 μg/mL + labelled antibiotic at MIC of same cell): 1.0
MIC of antibiotic in combination with Chlopam ([1]; Chlopam 0.5 μg/mL): 0.016 µg/mL
Effect of individual antibiotic combinations ([1]; Chlopam and daptomycin: 0.003901 and 0.5, 0.0078125 and 0.5, 0.015625 and 0.5, 0.25 and 0.25, 0.5 and 0.016 μg/mL): additive effect
FICI of combination with Ramizol ([1]; Ramizol 0.015625 μg/mL + labelled antibiotic at MIC of same cell): 1.0
MIC of antibiotic in combination with Ramizol ([1]; Ramizol 0.015625 μg/mL): 0.5 µg/mL
FICI of combination with Ramizol ([1]; Ramizol 0.03125 μg/mL + labelled antibiotic at MIC of same cell): 1.0
MIC of antibiotic in combination with Ramizol ([1]; Ramizol 0.03125 μg/mL): 0.5 µg/mL
FICI of combination with Ramizol ([1]; Ramizol 0.0625 μg/mL + labelled antibiotic at MIC of same cell): 1.0
MIC of antibiotic in combination with Ramizol ([1]; Ramizol 0.0625 μg/mL): 0.5 µg/mL
FICI of combination with Ramizol ([1]; Ramizol 0.125 μg/mL + labelled antibiotic at MIC of same cell): 1.0
MIC of antibiotic in combination with Ramizol ([1]; Ramizol 0.125 μg/mL): 0.5 µg/mL
FICI of combination with Ramizol ([1]; Ramizol 4 μg/mL + labelled antibiotic at MIC of same cell): 1.0
MIC of antibiotic in combination with Ramizol ([1]; Ramizol 4 μg/mL): 0.016 µg/mL
Effect of individual antibiotic combinations ([1]; Ramizol and daptomycin: 0.015625 and 0.5, 0.03125 and 0.5, 0.0625 and 0.5, 0.125 and 0.5, 2 and 0.25, 2 and 0.125, 2 and 0.063, 2 and 0.031, 4 and 0.016 μg/mL): additive effect
MIC ([1]; ATCC29213, Table 4, checkerboard series with Chlopam): 0.5 µg/mL
MIC ([1]; ATCC29213, Table 7, checkerboard series with Ramizol): 0.5 µg/mL
mean FICI of combination with Chlopam ([1]; labelled antibiotic + Chlopam, mean of all pairwise combinations): 1.1
Effect of the combinations with Ramizol (by mean FICI) ([1]; labelled antibiotic + Ramizol): additive effect
mean FICI of combination with Ramizol ([1]; labelled antibiotic + Ramizol, mean of all pairwise combinations): 1.0
FICI of combination with Chlopam ([2]; Chlopam 0.001953 μg/mL + labelled antibiotic at MIC of same cell, S. aureus ATCC BAA-1717): 1.0
MIC of antibiotic in combination with Chlopam ([2]; Chlopam 0.001953 μg/mL, S. aureus ATCC BAA-1717): 0.5 µg/mL
FICI of combination with Chlopam ([2]; Chlopam 0.003906 μg/mL + labelled antibiotic at MIC of same cell, S. aureus ATCC BAA-1717): 1.0
MIC of antibiotic in combination with Chlopam ([2]; Chlopam 0.003906 μg/mL, S. aureus ATCC BAA-1717): 0.5 µg/mL
FICI of combination with Chlopam ([2]; Chlopam 0.0078125 μg/mL + labelled antibiotic at MIC of same cell, S. aureus ATCC BAA-1717): 1.0
MIC of antibiotic in combination with Chlopam ([2]; Chlopam 0.0078125 μg/mL, S. aureus ATCC BAA-1717): 0.5 µg/mL
FICI of combination with Chlopam ([2]; Chlopam 0.015625 μg/mL + labelled antibiotic at MIC of same cell, S. aureus ATCC BAA-1717): 1.0
MIC of antibiotic in combination with Chlopam ([2]; Chlopam 0.015625 μg/mL, S. aureus ATCC BAA-1717): 0.5 µg/mL
FICI of combination with Chlopam ([2]; Chlopam 0.5 μg/mL + labelled antibiotic at MIC of same line, S. aureus ATCC BAA-1717): 1.0
MIC of antibiotic in combination with Chlopam ([2]; Chlopam 0.5 μg/mL, S. aureus ATCC BAA-1717): 0.016 µg/mL
Effect of individual antibiotic combinations ([2]; Chlopam and daptomycin: 0.001953 and 0.5, 0.003901 and 0.5, 0.0078125 and 0.5, 0.015625 and 0.5, 0.5 and 0.016 μg/mL): additive effect
FICI of combination with Ramizol ([2]; Ramizol 0.015625 μg/mL + labelled antibiotic at MIC of same cell, S. aureus ATCC BAA-1717): 1.0
MIC of antibiotic in combination with Ramizol ([2]; Ramizol 0.015625 μg/mL, S. aureus ATCC BAA-1717): 0.5 µg/mL
FICI of combination with Ramizol ([2]; Ramizol 0.03125 μg/mL + labelled antibiotic at MIC of same cell, S. aureus ATCC BAA-1717): 1.0
MIC of antibiotic in combination with Ramizol ([2]; Ramizol 0.03125 μg/mL, S. aureus ATCC BAA-1717): 0.5 µg/mL
FICI of combination with Ramizol ([2]; Ramizol 0.0625 μg/mL + labelled antibiotic at MIC of same cell, S. aureus ATCC BAA-1717): 1.0
MIC of antibiotic in combination with Ramizol ([2]; Ramizol 0.0625 μg/mL, S. aureus ATCC BAA-1717): 0.5 µg/mL
FICI of combination with Ramizol ([2]; Ramizol 0.125 μg/mL + labelled antibiotic at MIC of same line, S. aureus ATCC BAA-1717): 1.0
MIC of antibiotic in combination with Ramizol ([2]; Ramizol 0.125 μg/mL, S. aureus ATCC BAA-1717): 0.5 µg/mL
FICI of combination with Ramizol ([2]; Ramizol 2 μg/mL + labelled antibiotic at MIC of same line, S. aureus ATCC BAA-1717): 1.0
MIC of antibiotic in combination with Ramizol ([2]; Ramizol 2 μg/mL, S. aureus ATCC BAA-1717): 0.25 µg/mL
FICI of combination with Ramizol ([2]; Ramizol 4 μg/mL + labelled antibiotic at MIC of same cell, S. aureus ATCC BAA-1717): 1.0
MIC of antibiotic in combination with Ramizol ([2]; Ramizol 4 μg/mL, S. aureus ATCC BAA-1717): 0.016 µg/mL
Effect of individual antibiotic combinations ([2]; Ramizol and daptomycin: 0.015625 and 0.5, 0.03125 and 0.5, 0.0625 and 0.5, 0.125 and 0.5, 2 and 0.25, 4 and 0.016 μg/mL): additive effect
MIC ([2]; Staphylococcus aureus, ATCC BAA-1717 / BAA-1717, Table 4, checkerboard series with Chlopam, S. aureus ATCC BAA-1717, read-out: MIC of antibiotic alone): 0.5 µg/mL
MIC of antibiotic alone ([2]; Table 7, checkerboard series with Ramizol, S. aureus ATCC BAA-1717): 0.5 µg/mL
mean FICI of combination with Chlopam ([2]; labelled antibiotic + Chlopam, mean of all pairwise combinations, S. aureus ATCC BAA-1717): 1.2
mean FICI of combination with Ramizol ([2]; labelled antibiotic + Ramizol, mean of all pairwise combinations, S. aureus ATCC BAA-1717): 1.1
